According to US20150031697A1, “METHOD FOR PREVENTING ULTRAVIOLET RADIATION-INDUCED CUTANEOUS DAMAGE AND DEVELOPMENT OF SQUAMOUS CELL CARCINOMAS” (WISCONSIN ALUMNI RESEARCH FOUNDATION, priority 2013, published 2015):
Where two headings read alike, the source gives them in different places.

Assays:
UVR-induced hyperplasia [1] = test: Effect of topically applied Hsp90 inhibitors on UVR-induced hyperplasia (Table 3); on Effect on Hyperplasia, Mice 1 or Slide 1, 24 Hr. post UVR: key: +++ (positive effect); −−− (negative effect); −− (less negative); on Effect on Hyperplasia, Mice 2 or Slide 2, 24 Hr. post UVR: key: +++ (positive effect); −−− (negative effect); −− (less negative); on Effect on Hyperplasia, Mice 2 or Slide 2, 48 Hr. post UVR: key: +++ (positive effect); −−− (negative effect); −− (less negative); format: in vivo, SKH1 mice; parameters: Effect on Hyperplasia, Mice 2 or Slide 2, 24 Hr. post UVR / Effect on Hyperplasia, Mice 2 or Slide 2, 48 Hr. post UVR / Effect on Hyperplasia, Mice 1 or Slide 1, 24 Hr. post UVR / Effect on Hyperplasia, Mice 1 or Slide 1, 48 Hr. post UVR: key: +++ (positive effect); −−− (negative effect); −− (less negative); settings: for Effect on Hyperplasia, Mice 1 or Slide 1, 24 Hr. post UVR / Effect on Hyperplasia, Mice 1 or Slide 1, 48 Hr. post UVR / Effect on Hyperplasia, Mice 2 or Slide 2, 24 Hr. post UVR / Effect on Hyperplasia, Mice 2 or Slide 2, 48 Hr. post UVR: SKH1 mice, topical; for Effect on Hyperplasia, Mice 1 or Slide 1, 24 Hr. post UVR: mouse 1, 24 Hr. post UVR; for Effect on Hyperplasia, Mice 1 or Slide 1, 48 Hr. post UVR: mouse 1, 48 Hr. post UVR; for Effect on Hyperplasia, Mice 2 or Slide 2, 24 Hr. post UVR: mouse 2, 24 Hr. post UVR; for Effect on Hyperplasia, Mice 2 or Slide 2, 48 Hr. post UVR: mouse 2, 48 Hr. post UVR
UVR-induced SCC [2] = test: UVR-induced development of SCC in SKH-1 hairless mice (tumor induction experiment); format: in vivo
Protocol: (§1) The SKH-1 hairless mice (6-7 week old) were exposed to UVR. The UVR source was Kodacel-filtered FS-40 sun lamps (approximately 60% UVB and 40% UVA). Mice were exposed to UVR (1.8 kJ/m2) three times weekly (Monday, Wednesday and Friday). The mice in the vehicle group (n=18) received topical treatment of 200 μl vehicle (DMSO:acetone: 1:40 v/v) before and after each UVR exposures. […] Carcinomas were recorded grossly as downward-invading lesions, which were confirmed histologically. […] At the end of the experiment, mice were sacrificed. […] A part of the uninvolved dorsal skin was fixed for in 10% neutral-buffered formalin for histological examination. […] (D): A part of the uninvolved skin was also used to prepare total epidermal lysate to determine expression level of PKCε, Hsp90β, and Hsp70.
(§2) The PKCε-overexpressing transgenic (TG) and wildtype FVB/N mice (6-7 week old) were exposed to UVR. Mice were exposed to UVR (1.8 kJ/m2) three times weekly (Monday, Wednesday and Friday). The mice in the vehicle group received topical treatment of 200 μl vehicle (DMSO:acetone: 1:40 v/v) before and after UVR each exposure. […] Carcinomas were recorded grossly as downward-invading lesions, which were confirmed histologically. […] There were 11 mice in each group.
(§3) SKH1 hairless mice were purchased from Charles River Laboratories (Wilmington, Mass.). PKCε transgenic mice were generated as described previously (Reddig et al., 2000). The UVR source was Kodacel-filtered FS-40 sunlamps (approximately 60% UV-B and 40% UV-A). Mice were exposed to UVR from a bank of six Kodacel-filtered sunlamps. UVR dose was routinely measured using UVX-radiometer.
(§4) 4. […] Initial tumor induction experiment was performed with SKH-1 hairless mice.

UVR-induced SCC [3] = test: UVR-induced development of SCC in PKCε overexpressing transgenic FVB/N mice and wild-type littermates; format: in vivo
Protocol: as §2, §3

[4] = HPLC analysis of 17AAG in serum and mouse epidermis after topical application; format: in vivo, mice (SKH-1 hairless, FVB)
Protocol: SKH hairless mice (6-7 weeks old) were exposed to UVR (1.8 kJ/m^2) three times weekly (Monday, Wednesday, and Friday). The mice in the vehicle group (n=3) received topical treatment of 200 μl vehicle (DMSO:acetone: 1:40 v/v) before and after UVR exposures. […] All mice were treated for 25 weeks and sacrificed at 1, 3, 6 and 24 hours following the last UVR exposure. (A) Blood samples were collected to analyze serum 17AAG by HPLC. […] Mice were sacrificed at 6 and 24 hours post-17AAG treatment. (B) Blood samples were collected for serum 17AAG analysis. (C) 17AAG level was also analyzed in the epidermal protein lysate. To prepare epidermal lysate, epidermis was scraped and homogenized in the lysis buffer. […] Each value is an average of duplicate samples. ND: Not detectable. Inset: Chemical structure of 17AAG.
Dorsal areas of the mice (6-7 week old) were shaved and depilated one day before the treatment. […] Blood samples were collected to detect 17AAG in serum. To prepare epidermal lysate, epidermis was removed and homogenized with the lysis buffer. 17-AAG levels in the serum and mouse epidermis were analyzed by HPLC (Shin, et al., 2012).
1. Topically applied 17AAG is distributed both in epidermis and serum.

[5] = system: PKCε, Stat3, pStat3Tyr705, pStat3Ser727, Akt, pAktser473; test: Epidermal protein expression levels after UVR (Western blot); format: in vivo, PKCε-overexpressing transgenic mice
Protocol: PKCε-overexpressing transgenic mice (line 224) were exposed once to UVR (4 kJ/m2). […] Mice were sacrificed 24 hours post-UVR exposure. There were two mice per treatment point. Dorsal skin comprised excised, epidermal cell lysates prepared as described before (Aziz et al., 2007). […] PKCε-overexpressing transgenic mice (line 224) were exposed once to UVR (2 kJ/m2). […] Mice were sacrificed at 24 hours post-UVR exposure. There were three mice per treatment point. Dorsal skin comprised excised, epidermal cell lysates prepared as described before (Aziz et al., 2007). Pooled epidermal cell lysate was analyzed for PKCε expression level by western blot analysis (B). (C) Shown is the quantitation of the western blot (B).
Mouse skin was excised and scraped to remove subcutaneous fat. The epidermis was scraped off on an ice-cold glass plate, homogenized in lysis buffer [50 mmol/L HEPES, 150 mmol/L NaCl, 10% glycerol, 1% Triton X-100, 1.5 mmol/L MgCl2, 10 μg/m aprotinin, 10 μg/m leupeptin, 1 mmol/L phenylmethylsulfonyl fluoride (PMSF), 200 μmol/L Na3VO4, 200 μmol/L NaF, and 1 mmol/L EGTA (final pH 7.5)]. The homogenate was centrifuged at 14,000 g for 30 min at 4° C. […] The Western blots were quantitated by densitometric analysis using Totallab® Nonlinear Dynamic Image analysis software (Nonlinear USA, Inc., Durham, N.C.). […]

UVR-induced hyperplasia [6] = test: 17AAG effect on UVR-induced hyperplasia / epidermal thickness; format: in vivo; settings: SKH1 mice, 500 nmol topical after each UVR exposure, 24 hr and 48 hr after fourth UVR, p<0.01
Protocol: Groups of SKH1 mice were exposed to UVR (2 kJ/m2) three times (Monday, Wednesday, Friday, and Monday) weekly for 6 and 12 weeks. […] Mice were sacrificed at 24 hours after the last UVR treatment. […] For histochemistry, skin specimens were fixed in 10% neutral buffered formalin for 24 hours and embedded in paraffin.
In this experiment, groups of SKH1 hairless mice were exposed either four times to UVR (4 kJ/m^2, Monday, Wednesday, Friday, and Monday) or for 6 and 12 weeks (2 kJ/m^2, thrice weekly, Monday, Wednesday, Friday). […] The mice were sacrificed at 24 hr and 48 hr after the fourth UVR exposure. The, dorsal skin was removed and fixed in 10% formalin for the analyses of epidermal hyperplasia.

[7] = system: MMP-2, MMP-9, Collagen IV, Hsp70; test: Skin expression of MMPs, collagen IV, Hsp70 and PCNA after UVR (Western blot); format: in vivo; settings: SKH1 mice
Protocol: Groups of SKH1 mice were exposed to UVR (2 kJ/m2) three times (Monday, Wednesday, Friday, and Monday) weekly for 6 and 12 weeks. […] Mice were sacrificed at 24 hours after the last UVR treatment. […] To determine morphological and biochemical alteration in skin, the two layers of skin (epidermis and dermis) were isolated separately for analysis of the indicated protein by the western blot analysis.
Mouse skin was excised and scraped to remove subcutaneous fat. The epidermis was scraped off on an ice-cold glass plate, homogenized in lysis buffer [50 mmol/L HEPES, 150 mmol/L NaCl, 10% glycerol, 1% Triton X-100, 1.5 mmol/L MgCl2, 10 μg/m aprotinin, 10 μg/m leupeptin, 1 mmol/L phenylmethylsulfonyl fluoride (PMSF), 200 μmol/L Na3VO4, 200 μmol/L NaF, and 1 mmol/L EGTA (final pH 7.5)]. The homogenate was centrifuged at 14,000 g for 30 min at 4° C. Epidermal cell lysate proteins were fractionated on 10% Criterion™ pre-cast SDS-polyacrylamide gels (Bio-Rad Laboratories, Hercules, Calif.). The protein was transferred to 0.45 μm Hybond-P polyvinylidene difluoride (PVDF) transfer membrane (Amersham Life Sciences, Piscataway, N.J.). The membrane was then incubated with the indicated antibody followed by a horseradish peroxidase secondary antibody (Thermo Scientific), and the detection signal was developed with Amersham's enhanced chemiluminescence reagent and using FOTO/Analyst Luminary Work Station (Fotodyne Inc.). The Western blots were quantitated by densitometric analysis using Totallab® Nonlinear Dynamic Image analysis software (Nonlinear USA, Inc., Durham, N.C.).

PKCε, Hsp90β, Hsp70 = test: Expression levels in uninvolved skin at end of SCC experiment; format: in vivo, SKH-1 hairless mice; settings: SKH hairless mice
Protocol: as §1, §4

Hsp90β-PKCε interaction = Hsp90β-PKCε interaction (Mus musculus, UniProt P11499); settings: 500 nmol topical before and after one UVR exposure, 24 hours post-UVR
Sequence of Hsp90β-PKCε interaction (P11499 2-724 limits assumed): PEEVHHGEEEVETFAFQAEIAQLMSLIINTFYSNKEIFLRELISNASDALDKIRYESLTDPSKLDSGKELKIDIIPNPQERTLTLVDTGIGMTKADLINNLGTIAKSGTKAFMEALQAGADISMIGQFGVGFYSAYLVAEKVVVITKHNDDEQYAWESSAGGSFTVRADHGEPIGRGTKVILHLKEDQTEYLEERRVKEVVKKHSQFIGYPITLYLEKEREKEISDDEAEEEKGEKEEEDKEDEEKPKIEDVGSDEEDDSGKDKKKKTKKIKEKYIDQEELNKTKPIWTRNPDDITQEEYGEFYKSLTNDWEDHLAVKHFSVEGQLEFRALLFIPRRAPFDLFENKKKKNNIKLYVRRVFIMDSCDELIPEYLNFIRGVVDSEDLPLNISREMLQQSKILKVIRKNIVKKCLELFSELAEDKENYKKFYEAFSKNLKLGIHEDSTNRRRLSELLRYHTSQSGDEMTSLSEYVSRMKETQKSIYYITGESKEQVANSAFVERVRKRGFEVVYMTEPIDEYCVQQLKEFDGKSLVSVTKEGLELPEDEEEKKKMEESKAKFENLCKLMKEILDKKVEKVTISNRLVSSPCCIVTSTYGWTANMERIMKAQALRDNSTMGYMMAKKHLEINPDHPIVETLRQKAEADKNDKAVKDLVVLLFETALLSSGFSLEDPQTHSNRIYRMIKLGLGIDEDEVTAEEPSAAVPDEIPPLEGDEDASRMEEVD
Protocol: PKCε-overexpressing transgenic mice (line 224) were exposed once to UVR (4 kJ/m2). […] Mice were sacrificed 24 hours post-UVR exposure. There were two mice per treatment point. Dorsal skin comprised excised, epidermal cell lysates prepared as described before (Aziz et al., 2007). Pooled epidermal cell lysate was analyzed for PKCε-Hsp90β interaction by immunoprecipitation/Western blot analyses (A).
Epidermal lysates were prepared as for Western blot analysis. 100 μg of epidermal lysate was incubated with 10 μg of the indicated antibody. The total volume of the lysate/antibody mixture was adjusted to 1,000 μL with lysis buffer to allow for appropriate mixing and rotated at 4° C. overnight. Lysate/antibody mixture was then mixed with 50 μL of protein agarose A/G (sc-2003 Santa Cruz Biotechnology, Santa Cruz, Calif.) for 6 h. Lysate/antibody/protein A/G agarose mixture was then centrifuged at 8,000 g for 10 min to sediment the protein A/G agarose. Pellet was washed with 0.1% tween in PBS and then sedimented at 8,000 g for 10 min three times to wash any non-specific binding from the pellet. After three washes the immunoprecipite was then boiled for 5 min in 20 μL Protein Loading Buffer Blue (Cat # EC-886, National Diagnostics, Atlanta, Ga.). Immunoprecipitates were then treated as in Western Blot analysis above.

[8] = cited from earlier work; for bioavailability: literature
Hsp90 = settings: cited from earlier work
[9] = cited from earlier work
human Hsp90 = settings: cited from earlier work
[10] = in vivo; cited from earlier work
[11] = clinical trials; cited from earlier work
[12] = both mice, 24 hr and 48 hr post-UVR
[13] = SKH-1 hairless mice, 17AAG applied post each UVR exposure only
[14] = FVB mice, single topical application, 6 hr after treatment
[15] = 500 nmol topical after each UVR, 6 and 12 weeks

For C=CCNC1=C2C[C@@H](C)C[C@H](OC)[C@H](O)[C@@H](C)/C=C(\C)[C@H](OC(N)=O)[C@@H](OC)/C=C\C=C(/C)C(=O)NC(=CC1=O)C2=O [17AAG, 17-allylamino-demethoxygeldanamycin], the “Effect on Hyperplasia, Mice 1 or Slide 1, 24 Hr. post UVR” value (UVR-induced hyperplasia [1]) was “+++”, the “Effect on Hyperplasia, Mice 1 or Slide 1, 48 Hr. post UVR” value (UVR-induced hyperplasia [1]) was “+++” and the “Effect on Hyperplasia, Mice 2 or Slide 2, 24 Hr. post UVR” value (UVR-induced hyperplasia [1]) was “+++”. The “Effect on Hyperplasia, Mice 2 or Slide 2, 48 Hr. post UVR” value (UVR-induced hyperplasia [1]) was “+++”, the “effect on UVR-induced hyperplasia (Table 3)” value (from here on “effect … (Table 3)”) (UVR-induced hyperplasia [1]; [12]) was “positive effect” and the SCC incidence (UVR-induced SCC [2]; SKH hairless mice, 500 nmol topical before and after each UVR exposure) was “significantly (p=0.038) inhibited”. For the same compound, the “change in SCC latency” value (UVR-induced SCC [2]; SKH hairless mice, 500 nmol topical before and after each UVR exposure (1.8 kJ/m2, three times weekly)) was 17 weeks, the “increase in SCC latency” value (UVR-induced SCC [2]; [13]) was 20 weeks and the “inhibition of SCC incidence” value (UVR-induced SCC [2]; [13]) was greater than 50%. For the same compound, the “UVR-induced hyperplasia in uninvolved dorsal skin” value (UVR-induced SCC [2]; end of SCC experiment, SKH hairless mice (FIG. 5C)) was “inhibition”, the “UVR-induced development of SCC” value (UVR-induced SCC [3]; PKCε overexpressing transgenic FVB/N mice, topical 500 nmol before and after each UVR, p=0.036) was “significantly inhibited” and the “UVR-induced development of SCC” value (UVR-induced SCC [3]; wild-type and PKCε overexpressing transgenic FVB/N mice, topical, p<0.01) was “significantly (p<0.01) inhibited”. The “UVR-induced development of SCC” value (UVR-induced SCC [3]; wild-type littermates (FVB/N), topical 500 nmol before and after each UVR, p=0.018) was “significantly inhibited”, the “half-life of topically applied 17AAG” value ([4]; 500 nmol in DMSO:acetone 1:40 on skin, inferred from decline at 24 hours) was “short” and the “epidermal 17AAG level” value [4, 14] was “detectable”. For the same compound, the “serum 17AAG level” value [4, 14] was “detectable”, the “serum and epidermal 17AAG levels” value ([4]; SKH-1 and FVB mice, 24 hours post-17AAG treatment) was “lowest” and the “time of maximum serum 17AAG level post topical application” value ([4]; SKH-1 hairless mice, topical 500 nmol with three weekly UVR exposures for 25 weeks) was 1 h. The PKCε expression level ([5]; 500 nmol topical before and after one UVR exposure, 24 hours post-UVR (FIG. 3A input)) was “did not appreciably affect”, the “Stat3, pStat3Ser727, pStat3Tyr705 and pAktser473 expression levels” value ([5]; topical before and after one UVR exposure, 24 hours post-UVR) was “inhibited” and the “UVR-induced hyperplasia (epidermal thickness)” value (UVR-induced hyperplasia [6]) was “inhibited”. The “expression level of MMP-2, MMP-9, collagen IV” value [7, 15] was “decrease”, the “expression of Hsp70” value [7, 15] was “increase” and the “UVR-induced proliferative marker PCNA” value ([7]; topical) was “inhibited”. For the same compound, the Hsp70 level (PKCε, Hsp90β, Hsp70) was “increase”, the “Hsp90β and PKCε expression levels” value (PKCε, Hsp90β, Hsp70) was “inhibition” and the “UVR-induced PKCε-Hsp90β interaction” value (Hsp90β-PKCε interaction) was “suppressed”. The Half-life ([8]; administered intravenous or orally, literature reports) was 3 to 4 h, the bioavailability ([8]; given intraperitoneally) was “excellent” and the bioavailability ([8]; given orally) was “modest”. For the same compound, the “higher affinity for Hsp90 derived from tumor cells compared to Hsp90 from normal cells” value (Hsp90) was 100 fold and the “solubility in water or organic solvent, such as DMSO and ethanol, compared with Geldanamycin” value [9] was “higher”.

In the case of CO[C@H]1/C=C\C=C(/C)C(=O)NC2=CC(=O)C(NCCN(C)C)=C(C[C@@H](C)C[C@H](OC)[C@H](O)[C@@H](C)/C=C(\C)[C@@H]1OC(N)=O)C2=O.Cl [17DMAG], the “potency against human Hsp90 relative to 17-AAG” value (human Hsp90) is listed as roughly 2 times and the oral bioavailability [10] is listed as “excellent”.

In the case of COC1=C2C[C@@H](C)C[C@H](OC)[C@H](O)[C@@H](C)/C=C(\C)[C@H](OC(N)=O)[C@@H](OC)/C=C\C=C(/C)C(=O)NC(=CC1=O)C2=O [Geldanamycin], the liver toxicity [11] is given as “liver toxicity”.

In the case of CCNC(=O)c1cc2c(-c3cc(OCCN4CCCC4)c(Cl)cc3Cl)nc(N)nc2[nH]1 [NPVBEP800], the “Effect on Hyperplasia, Mice 1 or Slide 1, 24 Hr. post UVR” value (UVR-induced hyperplasia [1]) is reported as “+++”, the “Effect on Hyperplasia, Mice 1 or Slide 1, 48 Hr. post UVR” value (UVR-induced hyperplasia [1]) is reported as “+++” and the “Effect on Hyperplasia, Mice 2 or Slide 2, 24 Hr. post UVR” value (UVR-induced hyperplasia [1]) is reported as “+++”. For the same compound, the “Effect on Hyperplasia, Mice 2 or Slide 2, 48 Hr. post UVR” value (UVR-induced hyperplasia [1]) was “+++” and the “effect … (Table 3)” value (UVR-induced hyperplasia [1]; [12]) was “positive effect”.

With CCNC(=O)c1noc(-c2cc(C(C)C)c(O)cc2O)c1-c1ccc(CN2CCOCC2)cc1 [NVPAU922] the “effect … (Table 3)” value (UVR-induced hyperplasia [1]; [12]) was “slightly negative effect”.

With CC1(C)CC(=O)c2c(C(F)(F)F)nn(-c3ccc(C(N)=O)c(N[C@H]4CC[C@H](O)CC4)c3)c2C1 [SNX-2112] the “Effect on Hyperplasia, Mice 2 or Slide 2, 24 Hr. post UVR” value (UVR-induced hyperplasia [1]) was “+++”, the “Effect on Hyperplasia, Mice 2 or Slide 2, 48 Hr. post UVR” value (UVR-induced hyperplasia [1]) was “+++” and the “effect … (Table 3)” value (UVR-induced hyperplasia [1]; mouse 1, 24 hr and 48 hr post-UVR) was “no effect”. The “effect … (Table 3)” value (UVR-induced hyperplasia [1]; mouse 2, 24 hr and 48 hr post-UVR) was “positive effect”.
